# Experimental data as given in patent US9987276B2 (Celgene CAR LLC, priority 2008, dated 2018).
# Where two headings read alike, the source gives them in different places.
# Legend:
# ITK = ITK (Homo sapiens (Human), UniProt Q08881); experiment: Omnia assay for potency assessment against active forms of ITK kinase; format: biochemical; conditions: [ITK]=10 nM, [ATP]=25, [Y6-Sox]=10 μM; read-out: ITK Inhibition
# Description: [ITK]=10 nM, [ATP]=25 [Y6-Sox]=10 μM (ATP KMapp=33 μM).
# BTK [1] = molecular target: T1, BTK (Homo sapiens (Human), UniProt Q06187); experiment: Mass spectrometry for BTK (intact protein); format: binding; conditions: 1 hr, 10× fold excess of compound
# T1 sequence (Q06187 whole entry): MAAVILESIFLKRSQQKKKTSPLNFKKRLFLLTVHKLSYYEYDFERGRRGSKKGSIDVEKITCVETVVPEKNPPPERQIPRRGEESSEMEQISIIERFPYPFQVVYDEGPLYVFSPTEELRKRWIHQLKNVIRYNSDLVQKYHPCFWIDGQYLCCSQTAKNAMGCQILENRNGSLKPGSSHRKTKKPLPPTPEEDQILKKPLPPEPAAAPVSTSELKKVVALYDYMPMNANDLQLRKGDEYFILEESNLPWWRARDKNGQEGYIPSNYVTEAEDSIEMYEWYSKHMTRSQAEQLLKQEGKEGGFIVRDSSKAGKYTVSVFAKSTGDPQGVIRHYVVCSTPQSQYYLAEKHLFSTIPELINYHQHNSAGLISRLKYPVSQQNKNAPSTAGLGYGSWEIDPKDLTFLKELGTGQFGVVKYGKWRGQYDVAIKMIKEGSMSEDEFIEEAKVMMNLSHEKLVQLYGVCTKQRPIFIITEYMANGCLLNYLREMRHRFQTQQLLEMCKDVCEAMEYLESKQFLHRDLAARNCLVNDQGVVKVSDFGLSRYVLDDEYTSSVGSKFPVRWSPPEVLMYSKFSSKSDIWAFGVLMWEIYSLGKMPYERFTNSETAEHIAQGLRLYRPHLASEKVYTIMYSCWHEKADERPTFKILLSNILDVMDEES
# Description: Intact BTK was incubated for 1 hr at a 10× fold excess of I-7 to protein. Aliquots (2 μl) of the samples were diluted with 10 μl of 0.1% TFA prior to micro C4 ZipTipping directly onto the MALDI target using Sinapinic acid as the desorption matrix (10 mg/ml in 0.1% TFA:Acetonitrile 20:80).
# BTK [2] = molecular target: T1, BTK; experiment: Omnia assay for potency assessment against BTK; format: biochemical; conditions: [BTK]=5 nM, Omnia assay; read-out: BTK Inhibition (IC50)
# Description: The modified BTK-optimized reagent conditions for the above protocol are:
# [BTK]=5 nM, [ATP]=[…], [Y5-Sox]=[…] (ATP KMapp˜[…]).
# EGFR-WT = EGFR-WT (Homo sapiens (Human), UniProt P00533); experiment: Omnia assay for potency assessment against EGFR (WT)
# Sequence of EGFR-WT (P00533 668-1210): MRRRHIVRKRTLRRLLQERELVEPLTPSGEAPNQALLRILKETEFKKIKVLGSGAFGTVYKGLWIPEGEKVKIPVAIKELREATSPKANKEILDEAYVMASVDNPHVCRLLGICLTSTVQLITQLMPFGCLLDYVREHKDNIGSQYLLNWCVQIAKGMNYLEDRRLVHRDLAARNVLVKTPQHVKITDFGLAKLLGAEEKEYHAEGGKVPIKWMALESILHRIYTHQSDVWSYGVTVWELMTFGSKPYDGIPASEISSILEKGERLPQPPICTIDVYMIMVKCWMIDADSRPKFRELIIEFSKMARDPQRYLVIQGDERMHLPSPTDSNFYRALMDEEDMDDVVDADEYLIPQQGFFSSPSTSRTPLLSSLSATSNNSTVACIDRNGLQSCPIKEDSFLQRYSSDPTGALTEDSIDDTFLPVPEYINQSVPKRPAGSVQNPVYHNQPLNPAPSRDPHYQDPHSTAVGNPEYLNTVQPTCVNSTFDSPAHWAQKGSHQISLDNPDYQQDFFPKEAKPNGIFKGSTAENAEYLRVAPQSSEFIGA
# BTK [3] = molecular target: T1, BTK; experiment: BTK Ramos cellular assay (PLCγ2 phosphorylation); format: cell-based; conditions: Ramos cells, 1 hour compound, anti-IgM stimulation, p-PLCγ2; read-out: BTK Inhibition (IC50), BTK Ramos cellular inhibition
# EGFR-T790M/L858R = EGFR-T790M/L858R (Homo sapiens (Human), UniProt P00533, L858R/T790M); experiment: Omnia assay for potency assessment against EGFR (T790M/L858R)
# Sequence of EGFR-T790M/L858R (P00533 25-1210 T790M/L858R): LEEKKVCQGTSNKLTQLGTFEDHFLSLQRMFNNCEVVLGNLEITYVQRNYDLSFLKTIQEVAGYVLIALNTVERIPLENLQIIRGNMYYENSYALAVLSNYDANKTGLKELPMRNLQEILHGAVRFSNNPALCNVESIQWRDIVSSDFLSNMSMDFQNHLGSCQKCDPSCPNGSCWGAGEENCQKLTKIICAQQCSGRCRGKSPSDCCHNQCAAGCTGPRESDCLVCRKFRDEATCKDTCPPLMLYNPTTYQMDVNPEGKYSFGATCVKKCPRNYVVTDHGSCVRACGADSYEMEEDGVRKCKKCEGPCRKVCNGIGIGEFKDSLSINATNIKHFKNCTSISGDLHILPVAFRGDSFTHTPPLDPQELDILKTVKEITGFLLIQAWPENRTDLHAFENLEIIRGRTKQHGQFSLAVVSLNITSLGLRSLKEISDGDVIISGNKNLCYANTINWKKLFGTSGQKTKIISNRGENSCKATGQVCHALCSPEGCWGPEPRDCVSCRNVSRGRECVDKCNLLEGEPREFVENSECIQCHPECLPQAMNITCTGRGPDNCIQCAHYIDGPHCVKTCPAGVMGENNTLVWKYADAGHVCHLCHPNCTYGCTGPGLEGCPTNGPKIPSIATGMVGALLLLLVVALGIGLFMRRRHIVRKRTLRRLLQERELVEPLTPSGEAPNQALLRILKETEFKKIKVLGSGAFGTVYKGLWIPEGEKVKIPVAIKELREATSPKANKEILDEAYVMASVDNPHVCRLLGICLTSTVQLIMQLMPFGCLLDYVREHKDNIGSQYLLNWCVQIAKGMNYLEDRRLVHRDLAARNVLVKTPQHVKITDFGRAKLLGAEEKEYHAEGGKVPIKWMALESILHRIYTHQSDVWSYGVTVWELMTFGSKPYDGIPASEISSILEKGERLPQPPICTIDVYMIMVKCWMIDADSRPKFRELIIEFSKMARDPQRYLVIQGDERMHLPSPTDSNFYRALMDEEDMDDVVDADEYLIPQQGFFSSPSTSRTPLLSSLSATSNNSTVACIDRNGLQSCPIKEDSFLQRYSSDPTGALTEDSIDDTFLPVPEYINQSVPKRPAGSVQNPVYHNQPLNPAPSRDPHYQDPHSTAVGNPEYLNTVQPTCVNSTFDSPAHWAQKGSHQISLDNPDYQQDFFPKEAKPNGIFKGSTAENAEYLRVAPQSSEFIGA
# BTK [4] = molecular target: T1, BTK; experiment: Washout experiment with Ramos cells; format: cell-based; conditions: 100 nM compound for 1 hour, then washout
# Description: Ramos cells were serum starved for one hour in RPMI media+1% glutamine at 37° C. After starvation, Ramos cells were treated with 100 nM compound diluted in serum free RPMI media for 1 hour. After compound treatment, the media was removed and cells were washed with compound-free media. Subsequently, Ramos cells were washed every 2 hours and resuspended in fresh compound-free media. Cells were collected at specified timepoints, treated with 1 ug anti-human IgM (Southern Biotech cat #2022-01) for 10 minutes on ice to induce BCR signaling and then washed in PBS. Ramos cells were then lysed in Cell Extraction Buffer (Invitrogen FNN0011) supplemented with Roche complete protease inhibitor tablets (Roche 11697498001) and phosphatase inhibitors (Roche 04 906 837 001) and 18 ug total protein lysate was loaded in each lane. Inhibition of BTK kinase activity was assayed by measuring its substrate (PLCγ2) phosphorylation by western blot with phospho-specific antibodies from Cell Signaling Technologies cat #3871. The results of this experiment with compounds I-2, I-4 and I-7 are depicted in FIGS. 1, 2 and 3.
# BMX = BMX (Homo sapiens (Human), UniProt P51813); experiment: Omnia assay for potency assessment against active forms of BMX kinase; format: biochemical; conditions: [BMX]=2.5 nM, [ATP]=100 μM, [Y5-Sox]=7.5 μM; read-out: BMX Inhibition
# Sequence of BMX (P51813 whole entry): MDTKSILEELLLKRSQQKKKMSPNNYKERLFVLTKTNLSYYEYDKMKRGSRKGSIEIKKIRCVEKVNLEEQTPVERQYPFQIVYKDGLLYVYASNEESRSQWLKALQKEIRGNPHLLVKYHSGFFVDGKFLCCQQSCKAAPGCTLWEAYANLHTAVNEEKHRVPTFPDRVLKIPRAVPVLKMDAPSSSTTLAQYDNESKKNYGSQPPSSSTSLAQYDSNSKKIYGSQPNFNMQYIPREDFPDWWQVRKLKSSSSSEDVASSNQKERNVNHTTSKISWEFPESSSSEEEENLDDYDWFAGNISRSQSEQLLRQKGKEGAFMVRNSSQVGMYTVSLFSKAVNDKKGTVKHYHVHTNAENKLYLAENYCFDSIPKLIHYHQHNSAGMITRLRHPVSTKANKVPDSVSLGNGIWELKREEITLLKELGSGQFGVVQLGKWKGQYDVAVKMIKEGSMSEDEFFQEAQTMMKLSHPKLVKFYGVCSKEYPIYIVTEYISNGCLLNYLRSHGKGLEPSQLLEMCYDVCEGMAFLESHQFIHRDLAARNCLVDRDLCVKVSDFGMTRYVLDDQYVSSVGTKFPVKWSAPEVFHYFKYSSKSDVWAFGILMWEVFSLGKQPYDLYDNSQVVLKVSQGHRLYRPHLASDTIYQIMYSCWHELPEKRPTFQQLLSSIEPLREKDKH
# Description: Briefly, 10× stocks of EGFR-WT (PV3872) from Invitrogen and EGFR-T790M/L858R (40350) from BPS Bioscience, San Diego, Calif., 1.13×ATP (AS001A) and appropriate Tyr-Sox conjugated peptide substrates (KCZ1001) were prepared in 1× kinase reaction buffer consisting of 20 mM Tris, pH 7.5, 5 mM MgCl2, 1 mM EGTA, 5 mM β-glycerophosphate, 5% glycerol (10× stock, KB002A) and 0.2 mM DTT (DS001A).
# This example describes continuous-read kinase assays to measure inherent potency of compound against active forms of BMX enzymes as described in Example 251 above except that the modified BMX-optimized reagent conditions are:
# [BMX]=2.5 nM, [ATP]=100 μM, [Y5-Sox]=7.5 μM (ATP KMapp=107 μM).
# [5] = read-out: EGFR (T790M/L858R), EGFR mutant T790M/L858R
# [6] = read-out: EGFR (wild type inhibition), EGFR wild type
# Sequence of ITK (Q08881 whole entry): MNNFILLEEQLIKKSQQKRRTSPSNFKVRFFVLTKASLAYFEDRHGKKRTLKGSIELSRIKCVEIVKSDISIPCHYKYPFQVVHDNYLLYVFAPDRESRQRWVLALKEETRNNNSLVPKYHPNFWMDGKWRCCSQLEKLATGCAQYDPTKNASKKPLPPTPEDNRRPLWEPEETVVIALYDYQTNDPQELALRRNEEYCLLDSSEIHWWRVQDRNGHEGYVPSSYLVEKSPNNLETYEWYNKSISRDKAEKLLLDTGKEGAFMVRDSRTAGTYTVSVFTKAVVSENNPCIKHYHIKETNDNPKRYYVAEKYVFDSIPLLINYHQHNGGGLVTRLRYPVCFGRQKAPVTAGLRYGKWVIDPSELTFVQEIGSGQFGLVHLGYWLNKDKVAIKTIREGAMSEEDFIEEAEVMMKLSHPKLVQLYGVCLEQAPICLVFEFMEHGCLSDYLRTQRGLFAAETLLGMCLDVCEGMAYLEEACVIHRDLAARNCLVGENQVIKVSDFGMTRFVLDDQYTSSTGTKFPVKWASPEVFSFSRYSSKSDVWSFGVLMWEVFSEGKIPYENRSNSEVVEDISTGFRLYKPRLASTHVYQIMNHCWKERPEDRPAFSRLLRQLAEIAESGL
Compound,IC50 (ITK) [µM],covalent modification of BTK (mass spectrometry) (BTK [1]),IC50 (BTK [2]) [µM],IC50 (EGFR-WT) [µM],IC50 (BTK [3]) [µM],IC50 (EGFR-T790M/L858R; [5]) [µM],BTK Inhibition Type (BTK [4]),IC50 (BMX) [µM],IC50 (EGFR-WT; [6]) [µM],IC50 (EGFR-T790M/L858R) [µM]
"C=C(C#N)C(O)c1cccc(Nc2nc(Nc3ccc(OCCOC)cc3)ncc2F)c1 (centres unmarked) [Compound I-71, 2-((3-(5-fluoro-2-(4-(2-methoxyethoxy)phenylamino)pyrimidin-4-ylamino)phenyl)(hydroxy)methyl)acrylonitrile]",,completely modify,< 0.01,0.01 to 0.1,,,,,,
"Cc1cnc(Nc2ccccc2)nc1Nc1cccc(NC(=O)/C=C/CN(C)C)c1 [Compound I-38, (E)-4-(dimethylamino)-N-(3-(5-methyl-2-(phenylamino)pyrimidin-4-ylamino)phenyl)but-2-enamide]",0.01 to 0.1,,< 0.01,0.01 to 0.1,0.01 to 0.1,< 0.01,reversible,< 0.01,,
"C=CC(=O)N1CCOc2ccc(Nc3ncc(F)c(Nc4cccc(Cl)c4)n3)cc21 [Compound I-149, 1-(6-(4-(3-chlorophenylamino)-5-fluoropyrimidin-2-ylamino)-2H-benzo[b][1,4]oxazin-4(3H)-yl)prop-2-en-1-one]",1 to 10,completely modify,< 0.01,,0.01 to 0.1,,,,1 to 10,
"C=CC(=O)Nc1cccc(Nc2ncc(C)c(Nc3ccc(Oc4ccccc4)cc3)n2)c1 [Compound I-23, N-(3-(5-methyl-4-(4-phenoxyphenylamino)pyrimidin-2-ylamino)phenyl)acrylamide]",,,,0.1 to 1,,,,,,0.01 to 0.1
"C=CC(=O)Nc1cccc(Nc2ncc(C)c(Nc3ccccc3)n2)c1 [Compound I-5, N-(3-(5-methyl-4-(phenylamino)pyrimidin-2-ylamino)phenyl) acrylamide]",,,< 0.01,,,< 0.01,,,< 0.01,
"C#CCOc1cccc(Nc2ncc(C)c(Nc3cccc(NC(=O)C=C)c3)n2)c1 [Compound I-35, N-(3-(5-methyl-2-(3-(prop-2-ynyloxy)phenylamino)pyrimidin-4-ylamino)phenyl) acrylamide]",0.01 to 0.1,,< 0.01,0.01 to 0.1,< 0.01,< 0.01,irreversible,< 0.01,,
"C=CC(=O)Nc1cccc(Nc2nccc(Nc3cccc(C)c3)n2)c1 [Compound I-1, N-(3-(4-(m-tolylamino)pyrimidin-2-ylamino)phenyl)acrylamide]",0.1 to 1,,< 0.01,,,< 0.01,,,< 0.01,
"C=CC(=O)Nc1ccc(C)c(Nc2ncc(C)c(Nc3cccc(C)c3)n2)c1 [Compound I-8, N-(4-methyl-3-(5-methyl-4-(m-tolylamino)pyrimidin-2-ylamino)phenyl)acrylamide]",,,< 0.01,,0.1 to 1,< 0.01,,,< 0.01,
"C=CC(=O)Nc1ccc(Nc2nc(Nc3ccccc3)ncc2C)cc1 [Compound I-39, N-(4-(5-methyl-2-(phenylamino)pyrimidin-4-ylamino)phenyl) acrylamide]",0.1 to 1,,< 0.01,,0.01 to 0.1,0.1 to 1,,< 0.01,1 to 10,
"C=CC(=O)Nc1cccc(Nc2nc(Nc3ccccc3)ncc2F)c1 [Compound I-28, N-(3-(5-fluoro-2-(phenylamino)pyrimidin-4-ylamino)phenyl)acrylamide]",0.01 to 0.1,,< 0.01,0.01 to 0.1,,,irreversible,< 0.01,,

# Further lines, results first:
IC50 (ITK) [µM],covalent modification of BTK (mass spectrometry) (BTK [1]),IC50 (BTK [2]) [µM],IC50 (EGFR-WT) [µM],IC50 (BTK [3]) [µM],IC50 (EGFR-T790M/L858R; [5]) [µM],BTK Inhibition Type (BTK [4]),IC50 (BMX) [µM],IC50 (EGFR-WT; [6]) [µM],IC50 (EGFR-T790M/L858R) [µM],Compound
0.01 to 0.1,completely modify,< 0.01,0.01 to 0.1,0.01 to 0.1,,,,,,"C=CC(=O)N(C)Cc1ccc(Nc2nc(Nc3ccccc3)ncc2C)cc1 [Compound I-219, N-methyl-N-(4-(5-methyl-2-(phenylamino)pyrimidin-4-ylamino)benzyl)acrylamide]"
< 0.01,,< 0.01,,< 0.01,,irreversible,< 0.01,< 0.01,,"C=CC(=O)Nc1cccc(Oc2nc(Nc3ccccc3)ncc2C)c1 [Compound I-248, N-(3-(5-methyl-2-(phenylamino)pyrimidin-4-yloxy)phenyl)acrylamide]"
0.01 to 0.1,,< 0.01,0.01 to 0.1,< 0.01,,irreversible,< 0.01,,,"C=CC(=O)Nc1cccc(Nc2nc(Nc3ccc(F)cc3)ncc2F)c1 [Compound I-247, N-(3-(5-fluoro-2-(4-fluorophenylamino)pyrimidin-4-ylamino)phenyl)acrylamide]"
< 0.01,,< 0.01,0.01 to 0.1,< 0.01,,irreversible,,,,"C=CC(=O)Nc1cccc(Nc2nc(Nc3cccc(OC)c3)ncc2C(F)(F)F)c1 [Compound I-242, N-(3-(5-trifluoromethyl-2-(3-methoxyphenylamino)pyrimidin-4-ylamino)phenyl)acrylamide]"
0.01 to 0.1,,< 0.01,0.01 to 0.1,< 0.01,,irreversible,,,,"C=CC(=O)Nc1cccc(Oc2nc(Nc3ccccc3)ncc2F)c1 [Compound I-228, N-(3-(5-fluoro-2-(phenylamino)pyrimidin-4-yloxy)phenyl)acrylamide]"
0.01 to 0.1,,< 0.01,0.01 to 0.1,< 0.01,,irreversible,,,,"C=CC(=O)Nc1cccc(Nc2nc(Nc3ccc(OC)nc3)ncc2F)c1 [Compound I-243, N-(3-(5-fluoro-2-(6-methoxypyridin-3-ylamino)pyrimidin-4-ylamino)phenyl)acrylamide]"
,completely modify,< 0.01,0.01 to 0.1,,,,,,,"C=C(C#N)C(O)c1ccc(Nc2nc(Nc3ccccc3)ncc2F)cc1 (centres unmarked) [Compound I-161, 2-((4-(5-fluoro-2-(phenylamino)pyrimidin-4-ylamino)phenyl)(hydroxy)methyl)acrylonitrile]"
< 0.01,completely modify,< 0.01,0.1 to 1,0.1 to 1,,,,,,CC(C)=CC(=O)c1cccc(Nc2nc(Nc3cccc(OCCN(C)C)c3)ncc2F)c1 [Compound I-207]
< 0.01,,< 0.01,,< 0.01,,irreversible,,,,"C=CC(=O)Nc1cccc(Nc2nc(Nc3ccccc3)ncc2C(N)=O)c1 [Compound I-230, 4-(3-acrylamidophenylamino)-2-(phenylamino)pyrimidine-5-carboxamide]"
0.01 to 0.1,completely modify,< 0.01,0.01 to 0.1,0.01 to 0.1,,,,,,"C=CC(=O)N1CCC[C@@H](Nc2nc(Nc3cccc(OC)c3)ncc2F)C1 [Compound I-195, (R)-1-(3-(5-fluoro-2-(3-methoxyphenylamino)pyrimidin-4-ylamino)piperidin-1-yl)prop-2-en-1-one]"
